Data on one molecule can be found in publication PMC6175062, “Gaining Mechanistic Insight Into Coproporphyrin I as Endogenous Biomarker for OATP1B‐Mediated Drug–Drug Interactions Using Population Pharmacokinetic Modeling and Simulation” (Clinical Pharmacology and Therapeutics, 2018).

For orientation: IC50 means the concentration that gives 50% inhibition. Low readings indicate greater potency in that assay, high ones weaker potency in that assay.

On the set-up of data set [1]: method as in PMID 25813937. The following applies: in humans; cited from earlier work.
Data set [2] in a line: Population PK model of rifampicin plasma data, healthy subjects. It is filed as in vivo, human. Conditions: single 600-mg oral dose. The method, then:
Individual plasma and urine data were obtained from a previous study in 12 healthy male subjects.6 The study was split into three occasions (OCC1–3) with a 7‐day washout period between OCC1 and 2 and OCC2 and 3. During each occasion, baseline CPI urine and plasma samples were collected (Figure S2). A single 600‐mg oral dose of RIF and a single 5‐mg oral dose of RSV were administered to the volunteers in OCC1 and OCC2, respectively. Finally, in OCC3 the same respective doses of RIF and RSV were coadministered to healthy volunteers. Plasma (RIF, RSV, and CPI) were collected at predefined timepoints over the 24‐h period following administration of RIF and/or RSV. Urine samples were collected over one time interval (−7 to 0 h) for the pretreatment sample (CPI monitored) and two subsequent intervals (0–7 h and 7–24 h) for posttreatment samples of CPI and RSV. The total number of plasma samples for modeling purposes were 276 (OCC1 = 144, OCC3 = 132), 420 (OCC1 = 144, OCC2 = 144, OCC3 = 132), and 264 (OCC2 = 132, OCC3 = 132) for RIF, CPI, and RSV, respectively, whereas the total number of urine samples were 102 (pretreatment = 34, posttreatment = 68) and 44 for CPI and RSV, respectively. No subjects enrolled in the clinical study had OATP1B1*5 or OATP1B1*15 mutations, associated with altered OATP1B1 activity.
Population PK models were developed sequentially for analysis of RIF, CPI, and RSV plasma and urine data using nonlinear mixed‐effects modeling software, NONMEM, with first‐order conditional estimation method.32 Statistical analysis, GOF plots, and other graphical analysis were conducted in MATLAB. The structural models for RIF and RSV (Supplementary Material) were selected based on population PK models available in the literature.34, 35 An exponential model was used to describe interindividual variability random‐effects parameters and IOV was evaluated for the model parameters; occasions were defined as periods of different visits following recruitment or washout periods. Covariates and random‐effects parameters (IIV and IOV) were retained in the models when there was a significant change in objective function and improvement in GOF plots. The incorporation of IIV and IOV in the models is shown in Equation 2: (2) θik=θ⋅e^ηi+κik where θ ik is the parameter for i^th individual on k^th occasion, θ is the population (typical individual) parameter, η i is the parameter that describes the deviation of the i^th individual parameter from the population (IIV), and k ik the parameter that describes the deviation of the i^th individual from the population in addition to η ik at the k^th occasion (IOV). Both random effect parameters (η ik and k ik) are assumed to be randomly distributed with a mean of zero and the variances are estimated during analysis. Proportional or additive or combination of proportional and additive residual error models were investigated for the residuals.
Based on a previously developed population PK model for RIF, a one compartment first order elimination model with transit absorption model was used to describe plasma concentrations of RIF (12). This model was parameterised using clearance (CL), volume of distribution (V), absorption rate constant (ka), mean transit time (MTT) and number of transit compartments (n). In order to account for the interaction between RIF and CPI and RIF and RSV, sequential analysis of plasma and urine data was conducted. […]

Data set [3] concerns OATP-mediated rosuvastatin uptake in human hepatocytes. Nature of the data set: Rifampicin inhibition of rosuvastatin uptake in plated human hepatocytes. In kind it is cell-based. The following applies: RSV 2 µM; no pre-incubation effect, same donor. The method, then: The in vitro IC50 for rifampicin was assessed using CPI and RSV as OATP probe substrates in plated human hepatocytes. Cryopreserved human hepatocytes (Donor QQE, BioreclamationIVT, Baltimore, MD) were thawed and plated at a density of 350,000 cells (1). After culturing for 4h, hepatocytes were washed twice with Dulbecco's phosphate-buffered saline and pre-incubated for an hour with either buffer or rifampicin (0.01-100µM). Following pre-incubation, the medium was replaced with CPI (0.30µM) or RSV (2µM) containing rifampicin (0-100µM). Incubations were stopped after 3 or 5 minutes (for RSV and CPI,respectively) using the washing protocol described previously (2). Monolayers were lysed with water and frozen overnight and then prepared for protein quantification (BCA assay) and LC-MS/MS analysis.
Lysate concentrations were used to demine uptake rates over a series of free RIF concentrations measured in the medium and plotted as a % of the control to estimate RIF IC50 (Main article Figure 5A and Figure S1). RIF IC50 was determined using equation 1, where U denotes the uptake rate (% vs control) at the free inhibitor concentration in the incubation [I] (µM); R, the range of inhibition; B, the un-inhibitable background (%), and S, the slope factor (GraFit v6).

Molecules are shown by their SMILES.

Take `CO[C@H]1/C=C/O[C@@]2(C)Oc3c(C)c(O)c4c(O)c(c(/C=N/N5CCN(C)CC5)c(O)c4c3C2=O)NC(=O)/C(C)=C\C=C\[C@H](C)[C@H](O)[C@@H](C)[C@@H](O)[C@@H](C)[C@H](OC(C)=O)[C@@H]1C` [rifampicin]: in data set [1], the “unbound liver-to-plasma concentration ratio” value is 3.3. In addition, in data set [2], the “CL, population estimate” value is recorded as 3.97 L/h; the “MTT (mean transit time), population estimate” value is 0.74 h; the “V, population estimate” value is 24.7 L; the “n (number of transit compartments), population estimate” value is recorded as 8.63. Moreover, the “ka, population estimate” value in data set [2] (12 healthy males) is 2.09 h⁻¹. In addition, it took 1000 nM to reach half-maximal inhibition in data set [3] (IC50).
